Laboratory results taken from patent publication US20260184712A1, “Heterocyclic Compounds as ENT Inhibitors and Compounds for Use in the Treatment of Cancers” (iTeos Belgium SA, priority 2022, published 2026).

biological target: T1, human ENT1 (Homo sapiens, UniProt Q99808); assay: ENT1 binding assay (competition with Sahenta-DY647 on JAR cells); settings: competition with SAHENTA-DY647 binding; IC50 categorized; read-out: Binding Assay IC50
T1 construct: JAR cells expressing ENT1 were purchased from ATCC; host or cells: JAR cells
T1 sequence (Q99808 1-456): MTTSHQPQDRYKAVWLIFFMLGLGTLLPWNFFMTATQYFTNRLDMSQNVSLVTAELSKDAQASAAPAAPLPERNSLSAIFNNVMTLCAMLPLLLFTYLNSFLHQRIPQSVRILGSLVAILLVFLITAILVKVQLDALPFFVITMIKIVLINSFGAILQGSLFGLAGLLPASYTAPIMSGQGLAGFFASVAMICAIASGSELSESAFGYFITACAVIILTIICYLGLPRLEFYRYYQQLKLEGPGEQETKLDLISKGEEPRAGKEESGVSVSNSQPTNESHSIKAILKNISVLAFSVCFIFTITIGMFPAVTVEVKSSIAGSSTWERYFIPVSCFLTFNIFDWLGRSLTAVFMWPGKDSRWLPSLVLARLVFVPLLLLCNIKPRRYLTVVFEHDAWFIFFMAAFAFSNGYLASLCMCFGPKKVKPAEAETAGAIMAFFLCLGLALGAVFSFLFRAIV
Outline: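 Fluorescent-tracer displacement: compound incubated with JAR cells 30 min, 4 °C, before Sahenta-DY647 (100 nM) for another 30 min, 4 °C, in Hepes-buffered HBSS with 0.1% BSA. Bound tracer read at 670 nm after washes; IC50 from four-parameter fit, reported as mean of pIC50 values.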

Row | SMILES | IC50 [nM]
1 | C[C@H]1O[C@@H](n2cnc3c(N4CCc5ccc([N+](=O)[O-])cc5C4)ncnc32)[C@H](O)[C@@H]1O [Compound 151] | 1 to 20
2 | C[C@H]1O[C@@H](n2cnc3c(OCc4ccc([N+](=O)[O-])cc4)ncnc32)[C@H](O)[C@@H]1O [Compound 166] | 20 to 500
3 | C[C@H]1O[C@@H](n2c(NC3CCCC3)nc3c(OCc4ccc([N+](=O)[O-])cc4)ncnc32)[C@H](O)[C@@H]1O [Compound 6] | < 1
4 | C[C@H]1O[C@@H](n2c(NC3CCOCC3)nc3c(OCc4ccc(OC(F)F)nc4)ncnc32)[C@H](O)[C@@H]1O [Compound 75] | < 1
5 | C[C@H]1O[C@@H](n2c(NC3CCOCC3)nc3c(OCc4ccc(C#N)cc4)ncnc32)[C@H](O)[C@@H]1O [Compound 73] | < 1
6 | C[C@H]1O[C@@H](n2cnc3c(SCc4ccc([N+](=O)[O-])cc4)ncnc32)[C@H](O)[C@@H]1O [Compound 147] | 1 to 20

More lines, now with the values ahead:

Row | IC50 [nM] | SMILES
7 | < 1 | C[C@H]1O[C@@H](n2c(NC3CCC(O)CC3)nc3c(OCc4ccc([N+](=O)[O-])cc4)ncnc32)[C@H](O)[C@@H]1O (stereo partly shown) [Compound 28]
8 | 20 to 500 | C[C@H]1O[C@@H](n2cnc3c(OCc4ccc(OC(F)F)cc4)ncnc32)[C@H](O)[C@@H]1O [Compound 173]
9 | 20 to 500 | OCCOC[C@H]1O[C@@H](n2cnc3c(OCc4ccc(OC(F)(F)F)cc4)ncnc32)[C@H](O)[C@@H]1O [Compound 175]
10 | 1 to 20 | C[C@H]1O[C@@H](n2c(N[C@H]3CCC(F)(F)C3)nc3c(OCc4ccc(C#N)cc4)ncnc32)[C@H](O)[C@@H]1O [Compound 82]
